Publication PMC9747239, “State-selective modulation of heterotrimeric Gαs signaling with macrocyclic peptides” (Cell, 2022)
One block for each molecule: values may come before it. Where a SMILES comes first, the peptide text is derived from it. Bridges are numbered along the chain shown (N, C = ends). Where no end group is shown, it is not given here. [ ]: non-standard residue; d: D form. The star is where a group is joined. NH(CH2CH2O)2(CH2)6Cl = ClCCCCCCOCCOCCN*

B1: Biotinylated Avi-Gαs (WT), residues 7-380 of the short isoform of human Gαs (natural protein)
chain: SKTEDQRNEEKAQREANKKIEKQLQKDKQVYRATHRLLLLGAGESGKSTIVKQMRILHVNGFNGDSEKATKVQDIKNNLKEAIETIVAAMSNLVPPVELANPENQFRVDYILSVMNVPDFDFPPEFYEHAKALWEDEGVRACYERSNEYQLIDCAQYFLDKIDVIKQADYVPSDQDLLRCRVLTSGIFETKFQVDKVNFHMFDVGGQRDERRKWIQCFNDVTAIIFVVASSSYNMVIREDNQTNRLQEALNLFKSIWNNRWLRTISVILFLNKQDLLAEKVLAGKSKIEDYFPEFARYTTPEDATPEPGEDPRVTRAKYFIRDEFLRISTASGDGRHYCYPHFTCAVDTENIRRVFNDCRDIIQRMHLRQYELL
modifications: biotin on the Avi tag
notes: Gαs (GNAS), human, short isoform (380 residues), residues 7-380; Loaded with GppNHp (GNP) or GDP as the assay says; also called Biotinylated Gαs/GNP; Biotinylated Gαs/GDP; source: E. coli BL21(DE3), purified (TALON, Source-15Q, gel filtration), biotinylated with BirA; not shown: Avi tag, N-terminal, kept; His6, N-terminal, cleaved
B2: Biotinylated Avi-Gαs (WT), residues 7-380 of the short isoform of human Gαs (natural protein)
chain: B1 chain
modifications: biotin on the Avi tag (BirA)
notes: human Gαs (GNAS), short isoform, residues 7-380; Loaded with GNP (GppNHp) or GDP; the nucleotide state is told by the assay; also called Gαs/GNP; Gαs/GDP; source: E. coli BL21(DE3), purified (TALON, Drice cleavage, BirA biotinylation, Source-15Q, gel filtration); not shown: Avi tag, N-terminal, kept; His6, N-terminal, cleaved
B3: GD20 (peptide)
peptide: {CH2CO}-[dY]LITFRQWAFNLPCG
modifications: thioether N-14
notes: Selected by RaPID mRNA display; Synthesised on NovaPEG Rink Amide resin, so a C-terminal amide is surmised; source: synthetic peptide (Fmoc solid phase synthesis, cyclised, RP-HPLC)

What was measured:
Gαs/GDP = molecular target: T1, Gαs/GDP (Homo sapiens, UniProt P63092); assay: Bio-layer interferometry (BLI), GDP-bound Gαs; conditions: read-out: KD, binding to Gαs/GDP
T1 construct: hexahistidine (N, cleaved yes); made in house; host or cells: E. coli BL21(DE3)
Experimental: BLI experiments were performed using an OctetRED384 instrument from ForteBio. All experiments were performed at 25°C using BLI buffer (10 mM HEPES pH 7.4, 150 mM NaCl, 1mM MgCl2, 0.05% Tween 20, 0.1% DMSO, 0.2 mM GNP or GDP). Cyclic peptides or Gα proteins were diluted to a series of concentrations (Final concentrations were indicated in Figures) in BLI buffer plus 10 μM Biotin. Assays were conducted in Greiner 384well, black, flat bottom polypropylene plates containing the protein solutions, BLI buffer plus 10 μM Biotin for dissociation, and serial dilutions of cyclic peptides to be tested.
Biotinylated proteins or cyclic peptides were immobilized on Streptavidin biosensors by dipping sensors into plate wells containing protein solutions at a concentration of 50–150 nM. Protein loading is around 2–3 nm. Cyclic peptide loading is around 0.2–0.3 nm. Sensors loaded with proteins or cyclic peptides were moved and dipped into wells with BLI buffer plus 10 μM Biotin to block unlabeled Streptavidin. […]
Raw kinetic data collected were processed with the Data Analysis software provided by the manufacturer using single reference subtraction in which buffer-only reference was subtracted (For GN13 analysis). […] The resulting data were analyzed based on a 1:1 binding model from which kon and koff values were obtained and then Kd values were calculated.

Gαs/GDP and Gβγ(C68S) = molecular target: T2, Gαs/GDP and Gβγ(C68S) (Homo sapiens, UniProt P63092); assay: FRET based Gαs/Gβγ interaction assay; format: binding
T2 construct: hexahistidine (N, cleaved yes); made in house; host or cells: E. coli BL21(DE3) (Gαs); Sf9 insect cells (Gβ1γ2)

[1] = Chemical stability assay in DMEM with 10% FBS; format: in vitro ADME; conditions: bovine, DMEM with 10% FBS (fetal bovine serum), 37 °C, values represent 95% confidence intervals, read-out: Half-life (hour), chemical stability in DMEM with 10% FBS
Experimental: (§1) These assays were conducted by Pharmaron Beijing CO., Ltd. Cyclic peptides working solutions were prepared at 10 μM in DMEM with 10% FBS (Avantor, Cat# 76,294–180) or human plasma (Pooled, Male & Female, BioIVT, Cat# HMN666664). The assays were performed in duplicate. Vials were incubated at 37 °C at 60 rpm in a water bath and taken at designated time points including 0, 480, 1080 and 1440 min. For each time point, the initiation of the reaction was staggered so all the time points were terminated with cold acetonitrile containing internal standards (IS, 100 nM alprazolam, 200 nM labetalol, 200 nM Imipramine and 2 μM ketoplofen) at the same time. Samples were vortexed then centrifuged at 4°C to remove proteins. The supernatants from centrifugation were diluted by ultra-pure H2O and used for LC-MS/MS analysis. All calculations were carried out using GraphPad Prism. Remaining percentages of parent compounds at each time point were estimated by determining the peak area ratios from extractedion chromatograms.

Plasma stability assay = format: in vitro ADME; conditions: both sexes, pooled human plasma, 37 °C, values represent 95% confidence intervals, read-out: Half-life (hour), plasma stability
Experimental: as §1

HeLa cells = assay: Chloroalkane penetration assay (CAPA); format: cell-based, human; conditions: HeLa cells expressing HaloTag, 19.5 h incubation
Experimental: The cell lines used for CAPA were HeLa cell lines, generated by Chenoweth and co-workers, that stably express HaloTag exclusively in the cytosol ([Peraro et al., 2018]). Cells were seeded in a 96-well plate the day before the experiment at a density of 4 × 10^4 cells per well. The day of the experiment the media was aspirated, and 100 μL of cyclic peptide dilutions in DMEM were added to the cells. Plate was incubated for 19.5 h at 37°C with 5% CO2. The contents of the wells were aspirated off, and wells were washed using fresh Opti-MEM for 15 min. The wash was aspirated off, and the cells were chased using 5 μM ct-TAMRA for 15 min, except for the No-ct-TAMRA control wells, which were incubated with Opti-MEM alone. The contents of the wells were aspirated and washed with fresh Opti-MEM for 30 min. After aspiration, cells were rinsed once with PBS (PBS). The cells were then trypsinized, quenched with DMEM, resuspended in PBS, and analyzed using a benchtop flow cytometer (CytoFLEX, Beckman). Final [cyclic peptide]: 0, 0.034, 0.10, 0.31, 0.93, 2.78, 8.33, 25 μM.

[2] = molecular target: T3, Adenylyl cyclase (C1 domain of ADCY5, VC1, with C2 domain of ADCY2, IIC2) (human, UniProt O95622 442-658; Q08462 871-1082); assay: AlphaScreen or HTRF; TR-FRET competition: biotinylated GNP-bound Gαs (100 nM) with streptavidin XL665, AC (VC1 20 nM, IIC2 40 nM, forskolin 100 uM) with anti-6His-Tb cryptate, GN13 0-40,000 nM, 1 h at room temperature, 1X PBS 7.4, 0.1% BSA, 2 mM DTT, 2 mM MgCl2; conditions: both partners purified
T3 construct: C1 domain (VC1) of adenylyl cyclase V; C2 domain (IIC2) of human adenylyl cyclase II, residues 871-1082; Forskolin (100 uM) was present in the assay; also called AC; VC1/IIC2; source: E. coli BL21(DE3), purified (TALON, gel filtration); VC1 and IIC2 mixed with forskolin as one AC stock

[3] = molecular target: T4, Adenylyl cyclase (AC): C1 domain of ADCY5 (VC1) with C2 domain of ADCY2 (IIC2), with forskolin (human, UniProt O95622 442-658; Q08462 871-1082); assay: AlphaScreen or HTRF; TR-FRET Gαs/adenylyl cyclase interaction assay: 100 nM GNP-bound biotinylated Gαs with streptavidin XL665, 20 nM VC1, 40 nM IIC2, 100 μM forskolin with anti-6His-Tb cryptate, cyclic peptide series; 1X PBS 7.4, 0.1% BSA, 2 mM DTT, 2 mM MgCl2, 1 h at room temperature; conditions: both partners purified
T4 construct: C1 domain of human ADCY5 (adenylyl cyclase V), residues 442-658; C2 domain of human ADCY2 (adenylyl cyclase II), residues 871-1082; In the TR-FRET assay AC was detected with anti-6His-Tb cryptate; source: E. coli BL21(DE3), each domain purified (TALON, gel filtration), mixed as an AC stock with forskolin

[4] = molecular target: B1; assay: BLI; biotinylated Gαs loaded with GDP immobilised on streptavidin biosensors (2-3 nm), cyclic peptide as analyte (4.12-1000 nM), association 120 s, dissociation 120 s, 25 °C, 10 mM HEPES pH 7.4, 150 mM NaCl, 1 mM MgCl2, 0.05% Tween 20, 0.1% DMSO, 0.2 mM GDP; double reference subtraction, 1:1 binding model; conditions: both partners purified

Molecule: CC[C@H](C)[C@@H]1NC(=O)[C@H](CC(C)C)NC(=O)[C@@H](Cc2ccc(O)cc2)NC(=O)CSC[C@@H](C(=O)NCC(N)=O)NC(=O)[C@@H]2CCCN2C(=O)[C@H](CC(C)C)NC(=O)[C@H](CC(N)=O)NC(=O)[C@H](CC(C)C)NC(=O)[C@H](C)NC(=O)[C@H](Cc2c[nH]c3ccccc23)NC(=O)[C@H](CCC(N)=O)NC(=O)[C@H](CCCNC(=N)N)NC(=O)[C@H](Cc2ccccc2)NC(=O)[C@H]([C@@H](C)O)NC1=O [cpGD20] ({CH2CO}-[dY]LITFRQWALNLPCG-NH2; thioether N-14)
Kd (Gαs/GDP): 14.5 ± 0.4 nM | IC50 (Gαs/GDP and Gβγ(C68S)): 14 ± 0.6 nM | half-life at 10 μM [1]: 37.4 to 50.3 h | half-life at 10 μM (Plasma stability assay): 7.16 to 12.7 h

cell penetration (CAPA) (HeLa cells): further improved cell penetration
Molecule: CC[C@H](C)[C@@H]1NC(=O)[C@H](CC(C)C)NC(=O)[C@@H](Cc2ccc(O)cc2)NC(=O)CSC[C@@H](C(=O)NCC(=O)NCCOCCOCCCCCCCl)NC(=O)[C@@H]2CCCN2C(=O)[C@H](CC(C)C)NC(=O)[C@H](CC(N)=O)NC(=O)[C@H](CC(C)C)NC(=O)[C@H](C)NC(=O)[C@H](Cc2c[nH]c3ccccc23)NC(=O)[C@H](CCC(N)=O)NC(=O)[C@H](CCCNC(=N)N)NC(=O)[C@H](Cc2ccccc2)NC(=O)[C@H]([C@@H](C)O)NC1=O [ct-GD20-F10L] ({CH2CO}-[dY]LITFRQWALNLPCG-{NH(CH2CH2O)2(CH2)6Cl}; thioether N-14)

cell penetration (CAPA) (HeLa cells): cell permeable
Molecule: CC[C@H](C)[C@@H]1NC(=O)[C@H](CC(C)C)NC(=O)[C@@H](Cc2ccc(O)cc2)NC(=O)CSC[C@@H](C(=O)NCC(=O)NCCOCCOCCCCCCCl)NC(=O)[C@@H]2CCCN2C(=O)[C@H](CC(C)C)NC(=O)[C@H](CC(N)=O)NC(=O)[C@H](Cc2ccccc2)NC(=O)[C@H](C)NC(=O)[C@H](Cc2c[nH]c3ccccc23)NC(=O)[C@H](CCC(N)=O)NC(=O)[C@H](CCCNC(=N)N)NC(=O)[C@H](Cc2ccccc2)NC(=O)[C@H]([C@@H](C)O)NC1=O [ct-GD20] ({CH2CO}-[dY]LITFRQWAFNLPCG-{NH(CH2CH2O)2(CH2)6Cl}; thioether N-14)

cell penetration (CAPA) (HeLa cells): measurable cell penetration
Molecule: CC[C@H](C)[C@@H]1NC(=O)[C@H](C)NC(=O)[C@H](Cc2ccc(O)cc2)NC(=O)[C@H](C(C)C)NC(=O)[C@H](CO)NC(=O)[C@H](CCC(N)=O)NC(=O)[C@H](Cc2ccccc2)NC(=O)[C@@H](Cc2ccc(O)cc2)NC(=O)CSC[C@@H](C(=O)NCC(=O)NCCOCCOCCCCCCCl)NC(=O)[C@H](CC(C)C)NC(=O)[C@H]([C@@H](C)O)NC(=O)CNC(=O)[C@H](Cc2c[nH]c3ccccc23)NC1=O [ct-GN13-E3Q] ({CH2CO}-[dY]FQSVYAIWGTLCG-{NH(CH2CH2O)2(CH2)6Cl}; thioether N-13)

Molecule: B1
binding result [2]: binds

Molecule: B2
binding result [3]: binds

Molecule: B3
koff [4]: 0.00343 s⁻¹ | kon [4]: 109000 M⁻¹ s⁻¹
